Reference: US20150010928A1, “MEANS AND METHODS FOR ASSESSING AN ENDOCRINE DISEASE OR DISORDER” (priority 2012, published 2015)
Marks after values point to notes of the source that are not given here.

Tested on: female rats
Test: Plasma metabolite profiling (GC-MS, LC-MS, SPE-LC-MS) in female rats dosed once daily over 28 days (OECD 407)
Format: in vivo, rat
Settings: high dose
Procedure, shortened: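 Polar and lipid fractions profiled by GC-MS and LC-MS/MRM, steroids by online SPE-LC-MS; pool-normalized data compared to controls by Welch test as treatment ratios and p-values.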

## C[C@]12C=CC3=C4CCC(=O)C=C4CCC3C1CC[C@@H]2O (stereo partly drawn) [Trenbolone]
f7, female rats, Table 15a
  3-Hydroxybutyrate: 2.05 *
  DAG (C18:1,C18:2): 1.42 *
  Glutamate: 1.18
  Glycine: 1.18 *
  Phosphatidylcholine (C16:0,C20:5): 1.09
  TAG (C16:0,C16:1): 1.49 *
  TAG (C16:0,C18:1,C18:3): 1.48 *
  TAG (C16:0,C18:2): 1.83 *
  TAG (C18:1,C18:2): 1.72 *
  TAG (C18:2,C18:2): 1.61 *
  TAG (C18:3, C18:2, C18:1): 1.92 *
  TAG (DAG-Fragment): 1.8 *
  TAG No 059: 1.62 *
  Threonic acid: 1.28 *
  trans-4-Hydroxyproline: 1.31 *
f7, female rats, Table 15b
  Androstenedione: 0.3 *
  Arginine: 0.76 *
  Campesterol: 0.53 *
  Ceramide (d18:1,C24:0): 0.5 *
  Lactate: 0.65 *
  Lysine: 0.68 *
  Metanephrine: 1
  Normetanephrine: 0.83 *
  Phosphatidylcholine (C16:0,C20:5): 1.09
  Phosphatidylcholine (C16:0,C22:6): 0.89
  Phosphatidylcholine (C18:0, C20:3): 0.77 *
  Phosphatidylcholine (C18:0,C18:1): 0.84
  Progesterone: 0.34 *
  Pyruvate: 0.57 *
  Sphingomyelin (d18:1,C23:0): 0.51 *
  Sphingomyelin (d18:1,C24:0): 0.62 *
  Urea: 0.74 *
f14, female rats, Table 15a
  3-Hydroxybutyrate: 1.73 *
  DAG (C18:1,C18:2): 1.56
  Glutamate: 1.13 *
  Glycine: 1.2 *
  Phosphatidylcholine (C16:0,C20:5): 1.18 *
  TAG (C16:0,C16:1): 1.41
  TAG (C16:0,C18:1,C18:3): 2.26 *
  TAG (C16:0,C18:2): 1.9
  TAG (C18:1,C18:2): 1.97 *
  TAG (C18:2,C18:2): 2.21 *
  TAG (C18:3, C18:2, C18:1): 2.39 *
  TAG (DAG-Fragment): 2.67 *
  TAG No 059: 2.14 *
  Threonic acid: 1.76 *
  trans-4-Hydroxyproline: 1.37 *
f14, female rats, Table 15b
  Androstenedione: 0.15 *
  Arginine: 0.69 *
  Campesterol: 0.4 *
  Ceramide (d18:1,C24:0): 0.41 *
  Lactate: 0.56 *
  Lysine: 0.62 *
  Metanephrine: 1.03
  Normetanephrine: 0.83 *
  Phosphatidylcholine (C16:0,C20:5): 1.18
  Phosphatidylcholine (C16:0,C22:6): 0.87 *
  Phosphatidylcholine (C18:0, C20:3): 0.75 *
  Phosphatidylcholine (C18:0,C18:1): 0.66 *
  Progesterone: 0.17 *
  Pyruvate: 0.61 *
  Sphingomyelin (d18:1,C23:0): 0.46 *
  Sphingomyelin (d18:1,C24:0): 0.64 *
  Urea: 0.72 *
f28, female rats, Table 15a
  3-Hydroxybutyrate: 1.32 *
  DAG (C18:1,C18:2): 1.79 *
  Glutamate: 1.23 *
  Glycine: 1.37 *
  Phosphatidylcholine (C16:0,C20:5): 1.17 *
  TAG (C16:0,C16:1): 1.28 *
  TAG (C16:0,C18:1,C18:3): 2.48 *
  TAG (C16:0,C18:2): 2.08 *
  TAG (C18:1,C18:2): 2.25 *
  TAG (C18:2,C18:2): 2.7 *
  TAG (C18:3, C18:2, C18:1): 3.06 *
  TAG (DAG-Fragment): 3.12 *
  TAG No 059: 2.7 *
  Threonic acid: 0.84
  trans-4-Hydroxyproline: 1.66 *
f28, female rats, Table 15b
  Androstenedione: 0.23 *
  Arginine: 0.78 *
  Campesterol: 0.9
  Ceramide (d18:1,C24:0): 0.69 *
  Lactate: 0.59 *
  Lysine: 0.65 *
  Metanephrine: 0.47 *
  Normetanephrine: 0.75 *
  Phosphatidylcholine (C16:0,C20:5): 1.17
  Phosphatidylcholine (C16:0,C22:6): 0.93
  Phosphatidylcholine (C18:0, C20:3): 0.87 *
  Phosphatidylcholine (C18:0,C18:1): 0.81 *
  Progesterone: 0.3 *
  Pyruvate: 0.72 *
  Sphingomyelin (d18:1,C23:0): 0.64 *
  Sphingomyelin (d18:1,C24:0): 0.74 *
  Urea: 0.54 *
